In data set [1] the test system is Barnyardgrass (Echinochloa crus-galli). As to the kind of experiment: Postemergence herbicidal activity, greenhouse spray. The format is in vivo. The following applies: Echinochloa crus-galli, post-emergence, 336 h, visual score after 2 weeks, read-out: Post-emergent % control ECHCG; for pest or weed control at 250 ppm: rate 250 ppm; for pest or weed control at 125 ppm: rate 125 ppm; for pest or weed control at 500 ppm: rate 500 ppm. The procedure, abridged: (§1)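 Seedlings were raised under greenhouse conditions for 7-21 days and used at the first or second true leaf stage. Each was sprayed evenly with about 1.5 mL of test solution by atomizer at […]. Treated pots then returned to the greenhouse, watered from below to avoid wash-off.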

In data set [2] the test system is Cocklebur (Xanthium strumarium). Described as above. The format is in vivo. The following applies: Xanthium strumarium, post-emergence, 336 h, visual score after 2 weeks, read-out: Post-emergent % control XANST; for pest or weed control at 250 ppm: rate 250 ppm; for pest or weed control at 125 ppm: rate 125 ppm; for pest or weed control at 500 ppm: rate 500 ppm, 0 no injury, 100 complete kill. A digest of the protocol:
as §1

Data set [3] concerns Lambsquarter (Chenopodium album). Described as above. The format is in vivo. The following applies: Chenopodium album, post-emergence, 336 h, visual score after 2 weeks, read-out: Post-emergent % control CHEAL; for pest or weed control at 250 ppm: rate 250 ppm; for pest or weed control at 125 ppm: rate 125 ppm; for pest or weed control at 500 ppm: rate 500 ppm. The procedure, abridged: as §1

Data set [4] concerns Yellow nutsedge (Cyperus esculentus). The data set is described as above. Type of data set: in vivo. As to conditions: Cyperus, post-emergence, 336 h, visual score after 2 weeks, read-out: Post-emergent % control CYPES; for pest or weed control at 250 ppm: rate 250 ppm; for pest or weed control at 125 ppm: rate 125 ppm; for pest or weed control at 500 ppm: rate 500 ppm. A digest of the protocol:
as §1

For data set [5], the system named is Crabgrass(large) (Digitaria sanguinalis). Nature of the data set: Preemergence herbicidal activity, soil spray. The format is in vivo. As to conditions: Digitaria sanguinalis, pre-emergence, 504 h, Table 5, visual score after 3 weeks, read-out: Pre-emergent % control DIGSA; for pest or weed control at 560 ppm: rate 560 ppm; for pest or weed control at 140 ppm: rate 140 ppm. A digest of the protocol:
(§2)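 Soil spray, preemergence: loam/sand 70:30 (pH ~8.1, OM ~1.5%) → seeded pots treated on surface; compound in acetone/DMSO 97:3, serially diluted into water/Tween 155 (99.9:0.1). Controls got aqueous carrier only. Greenhouse: ~15 h light, 23-29° C day / 22-28° C night.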

The subject of data set [6] is Giant Foxtail (Setaria faberi). Nature of the data set: Preemergence herbicidal activity, soil spray. As to conditions: Setaria faberi, pre-emergence, 504 h, Table 5, visual score after 3 weeks, read-out: Pre-emergent % control SETFA; for pest or weed control at 560 ppm: rate 560 ppm; for pest or weed control at 140 ppm: rate 140 ppm. The format is in vivo. The procedure, abridged: as §2

The subject of data set [7] is Lambsquarter (Chenopodium album). As to the kind of experiment: Preemergence herbicidal activity, soil spray. The format is in vivo. As to conditions: Chenopodium album, pre-emergence, 504 h, Table 5, visual score after 3 weeks, read-out: Pre-emergent % control CHEAL; for pest or weed control at 560 ppm: rate 560 ppm, 100 complete kill or no germination; for pest or weed control at 140 ppm: rate 140 ppm. The procedure, abridged:
as §2

In data set [8] the test system is Pigweed (redroot) (Amaranthus retroflexus). Nature of the data set: Preemergence herbicidal activity, soil spray. The following applies: Amaranthus retroflexus, pre-emergence, 504 h, Table 5, visual score after 3 weeks, read-out: Pre-emergent % control AMARE; for pest or weed control at 560 ppm: rate 560 ppm; for pest or weed control at 140 ppm: rate 140 ppm. Type of data set: in vivo. A digest of the protocol: as §2

Where two headings read alike, the source gives them in different places.

Experimental findings from patent publication US6784137B2, “6-aryl-4-aminopicolinates and their use as herbicides” (Dow AgroSciences LLC, priority 2001, dated 2004) are described below.

As to `COC(=O)c1nc(-c2ccc(OC)cc2)cc(N)c1Cl` [Compound 17, Methyl 4-amino-3-chloro-6-(4-methoxyphenyl)pyridine-2-carboxylate], the melting point (commonly the temperature, or range, at which the solid turns liquid) was 148 to 149 °C. Besides, the pest or weed control at 250 ppm in data set [1] (Table 1) turned out to be 70%. Also, in [2] (Table 1), the pest or weed control at 250 ppm was determined as 100%. In data set [3] (Table 1), the pest or weed control at 250 ppm was determined as 100%. Also, the pest or weed control at 250 ppm in data set [4] (Table 1) worked out at 70%. In [5], the pest or weed control at 560 ppm was found to be 100%. Besides, the pest or weed control at 560 ppm in data set [6] was 100%. Also, the pest or weed control at 560 ppm in [7] was 100%. In addition, the pest or weed control at 560 ppm in [8] is 100%.
Consider `COC(=O)c1nc(-c2ccc(Cl)cc2Cl)c(F)c(N)c1Cl` [Compound 88, Methyl 4-amino-3-chloro-5-fluoro-6-(2,4-dichlorophenyl)pyridine-2-carboxylate], for which the melting point was 122 °C. Moreover, in data set [1] (Table 1), the pest or weed control at 250 ppm was 85%. Besides, in data set [1] (Table 2), the pest or weed control at 125 ppm turned out to be 85%. For the same compound, in data set [2] (Table 1), the pest or weed control at 250 ppm came to 100%. Moreover, the pest or weed control at 125 ppm in data set [2] (Table 2) was found to be 100%. Also, the pest or weed control at 250 ppm in [3] (Table 1) turned out to be 100%. For the same compound, the pest or weed control at 125 ppm in [3] (Table 2) was 100%. Also, the pest or weed control at 250 ppm in [4] (Table 1) was 95%. For the same compound, the pest or weed control at 125 ppm in data set [4] (Table 2) amounted to 95%. The pest or weed control at 560 ppm in data set [5] was 70%. Further, the pest or weed control at 560 ppm in data set [6] was found to be 70%. In data set [7], the pest or weed control at 560 ppm is 100%. In addition, the pest or weed control at 560 ppm in data set [8] was 100%.
`COC(=O)c1nc(-c2ccc(Cl)cc2)cc(N)c1Cl` [Compound 19, Methyl 4-amino-3-chloro-6-(4-chlorophenyl)pyridine-2-carboxylate] displayed a melting point of 132 °C. For the same compound, in data set [1] (Table 1), the pest or weed control at 250 ppm turned out to be 80%. Also, the pest or weed control at 250 ppm in data set [2] (Table 1) was 100%. Also, the pest or weed control at 250 ppm in [3] (Table 1) came out at 95%. Moreover, the pest or weed control at 250 ppm in data set [4] (Table 1) came to 90%. For the same compound, in [5], the pest or weed control at 560 ppm stood at 100%. For the same compound, the pest or weed control at 560 ppm in data set [6] stood at 100%. For the same compound, the pest or weed control at 560 ppm in [7] came out at 100%. Further, the pest or weed control at 560 ppm in data set [8] came out at 100%.
For the compound `COc1ccc(-c2cc(N)c(Cl)c(C(=O)O)n2)cc1` [Compound 141, 4-Amino-3-chloro-6-(4-methoxyphenyl)pyridine-2-carboxylic acid], the melting point turned out to be 192 °C. The pest or weed control at 250 ppm in data set [1] (Table 1) amounted to 80%. Moreover, the pest or weed control at 250 ppm in data set [2] (Table 1) turned out to be 100%. The pest or weed control at 250 ppm in [3] (Table 1) amounted to 100%. For the same compound, the pest or weed control at 250 ppm in data set [4] (Table 1) worked out at 10%. In addition, in data set [5], the pest or weed control at 560 ppm is 60%. In addition, the pest or weed control at 560 ppm in [6] turned out to be 70%. In addition, the pest or weed control at 560 ppm in data set [7] was found to be 100%. In data set [8], the pest or weed control at 560 ppm is 98%.
In the case of `Nc1cc(-c2ccc(C(F)(F)F)cc2)nc(C(=O)O)c1Cl` [Compound 152, 4-Amino-3-chloro-6-[4-(trifluoromethyl)phenyl]pyridine-2-carboxylic acid], the melting point was in the range of 175 to 176 °C. In [1] (Table 1), the pest or weed control at 125 ppm was determined as 90%. Also, the pest or weed control at 125 ppm in data set [2] (Table 1) worked out at 100%. Besides, the pest or weed control at 125 ppm in data set [3] (Table 1) stood at 100%. Besides, the pest or weed control at 125 ppm in data set [4] (Table 1) came to 95%. In addition, the pest or weed control at 140 ppm in [5] is 100%. The pest or weed control at 140 ppm in [6] is 100%. For the same compound, the pest or weed control at 140 ppm in data set [7] worked out at 100%. Also, the pest or weed control at 140 ppm in data set [8] turned out to be 95%.
`COC(=O)c1nc(-c2ccc(Cl)cc2)c(Cl)c(N)c1Cl` [Compound 86, Methyl 4-amino-3,5-dichloro-6-(4-chlorophenyl)pyridine-2-carboxylate]: the melting point fell in the range of 160 to 162 °C. In addition, the pest or weed control at 500 ppm in data set [1] (Table 1) is 90%. Further, the pest or weed control at 125 ppm in data set [1] (Table 2) is 80%. In addition, in [2] (Table 1), the pest or weed control at 500 ppm is 100%. For the same compound, in data set [2] (Table 2), the pest or weed control at 125 ppm came out at 100%. For the same compound, the pest or weed control at 500 ppm in data set [3] (Table 1) amounted to 100%. In data set [3] (Table 2), the pest or weed control at 125 ppm was 100%. For the same compound, the pest or weed control at 500 ppm in data set [4] (Table 1) amounted to 90%. Moreover, in data set [4] (Table 2), the pest or weed control at 125 ppm amounted to 100%. In addition, the pest or weed control at 560 ppm in data set [5] is 40%. For the same compound, in data set [6], the pest or weed control at 560 ppm came to 40%. For the same compound, the pest or weed control at 560 ppm in data set [7] worked out at 100%. In data set [8], the pest or weed control at 560 ppm worked out at 100%.
`Cc1cccc(-c2cc(N)c(Cl)c(C(=O)O)n2)c1` [Compound 138, 4-Amino-3-chloro-6-(3-methylphenyl)pyridine-2-carboxylic acid] came in with a melting point of 173 to 175 °C. Further, the pest or weed control at 250 ppm in data set [1] (Table 1) came to 50%. Besides, the pest or weed control at 250 ppm in data set [2] (Table 1) stood at 100%. Moreover, the pest or weed control at 250 ppm in [3] (Table 1) stood at 100%. The pest or weed control at 250 ppm in data set [4] (Table 1) turned out to be 20%. In data set [5], the pest or weed control at 560 ppm was 100%. Also, the pest or weed control at 560 ppm in data set [6] amounted to 98%. Moreover, the pest or weed control at 560 ppm in data set [7] was 100%. In addition, the pest or weed control at 560 ppm in data set [8] came out at 100%.
On to `Nc1cc(-c2ccc(Cl)cc2)nc(C(=O)O)c1Cl` [Compound 154, 4-Amino-3-chloro-6-(4-chlorophenyl)pyridine-2-carboxylic acid], for which the melting point stood at 165 °C. The pest or weed control at 500 ppm in data set [1] (Table 1) was 100%. Moreover, the pest or weed control at 125 ppm in data set [1] (Table 2) amounted to 70%. In data set [2] (Table 1), the pest or weed control at 500 ppm amounted to 100%. For the same compound, the pest or weed control at 125 ppm in data set [2] (Table 2) stood at 100%. Moreover, in data set [3] (Table 1), the pest or weed control at 500 ppm came to 100%. In data set [3] (Table 2), the pest or weed control at 125 ppm was 100%. In addition, the pest or weed control at 500 ppm in data set [4] (Table 1) turned out to be 100%. Moreover, in data set [4] (Table 2), the pest or weed control at 125 ppm turned out to be 90%. For the same compound, in data set [5], the pest or weed control at 140 ppm worked out at 100%. Also, the pest or weed control at 140 ppm in [6] was 100%. The pest or weed control at 140 ppm in data set [7] turned out to be 100%. Besides, the pest or weed control at 140 ppm in data set [8] amounted to 100%.
Take `Cc1cc(-c2cc(N)c(Cl)c(C(=O)O)n2)ccc1Cl` [Compound 149, 4-Amino-3-chloro-6-(4-chloro-3-methylphenyl)pyridine-2-carboxylic acid]: the melting point was in the range of 190 to 191 °C. Also, the pest or weed control at 500 ppm in [1] (Table 1) was 95%. For the same compound, in data set [2] (Table 1), the pest or weed control at 500 ppm turned out to be 100%. Besides, in [3] (Table 1), the pest or weed control at 500 ppm was 100%. Moreover, the pest or weed control at 500 ppm in data set [4] (Table 1) is 100%. Moreover, in data set [5], the pest or weed control at 140 ppm was found to be 100%. Besides, the pest or weed control at 140 ppm in [6] was determined as 100%. Moreover, the pest or weed control at 140 ppm in data set [7] is 100%. Further, the pest or weed control at 140 ppm in data set [8] amounted to 100%.
`Nc1cc(-c2ccc(Cl)c(F)c2)nc(C(=O)O)c1Cl` [Compound 181, 4-Amino-3-chloro-6-(4-chloro-3-fluorophenyl)pyridine-2-carboxylic acid] came in with a melting point of 156 to 157 °C. Further, the pest or weed control at 500 ppm in [1] (Table 1) came to 100%. Further, in data set [1] (Table 2), the pest or weed control at 125 ppm was found to be 70%. Also, the pest or weed control at 500 ppm in [2] (Table 1) was 100%. The pest or weed control at 125 ppm in data set [2] (Table 2) came out at 100%. In addition, the pest or weed control at 500 ppm in data set [3] (Table 1) came to 100%. The pest or weed control at 125 ppm in [3] (Table 2) stood at 100%. Moreover, in data set [4] (Table 1), the pest or weed control at 500 ppm turned out to be 100%. The pest or weed control at 125 ppm in data set [4] (Table 2) came to 85%. Also, the pest or weed control at 140 ppm in [5] turned out to be 100%. The pest or weed control at 140 ppm in data set [6] was found to be 100%. Further, the pest or weed control at 140 ppm in [7] turned out to be 100%. Also, in [8], the pest or weed control at 140 ppm is 100%.
